Values after ≈ are worked out from the molar mass of the structure shown. “Also recorded” adds a separate entry of the source. Read-outs that look alike come from different tables or passages of the source.
Assays:
jack bean urease (JBU) [1] = target: T1, jack bean urease (JBU) (Canavalia ensiformis, UniProt P07374); experiment: Reactivation of PIC-deactivated urease by GSH; format: biochemical
T1 construct: Jack bean urease (JBU) (Type III, 40.3 U/mg) were offered by Sigma; purchased Sigma Type III, 40.3 U/mg (catalogue number not given)
Protocol: (§1) After 20 min, half of the reaction solution was removed and added to 1.25 mM GSH solution. Enzyme activity was determined before and after the addition of GSH. After co‐incubation for different periods, the residual enzyme activity in the mixtures was detected as described in Section 2.4.

H. pylori urease (HPU) [2] = target: T2, H. pylori urease (HPU) (Helicobacter pylori, UniProt P69996); experiment: Reactivation of PIC-deactivated urease by GSH; format: biochemical
T2 construct: endogenous in cells; host or cells: Helicobacter pylori ATCC 43504 (extract, method of Matsubara et al. 2003)
Protocol: as §1

jack bean urease (JBU) [3] = target: T1, jack bean urease (JBU); experiment: biochemical
jack bean urease (JBU) [4] = target: T1, jack bean urease (JBU); experiment: Urease inhibition type and kinetics (Lineweaver-Burk plots, progress curves); format: biochemical
Protocol: (§2) The Lineweaver‐Burk plots were applied to calculate the change in the Michaelis constant (K M) and maximum velocity (V max). […] Additionally, the inhibition constant was derived by secondary replotting of Lineweaver‐Burk plots. All tests were performed in triplicate.
(§3) Enzyme activity in both procedures was measured as outlined in Section 2.4. Subsequently, the curve fitting software was used to fit the data according to the following formula: Pt=VS×t+V0−VS(1−e^−kapp×t)/kapp^−1 where, P(t) is the amount of product accumulated after t minutes of reaction, V 0 is the velocity at the start of the reaction, V S is the velocity at which the reaction reaches equilibrium, and kapp is the apparent velocity constant (Breitenbach and Hausinger [1988]). The experiments were repeated three times.

H. pylori urease (HPU) [5] = target: T2, H. pylori urease (HPU); experiment: as above; format: biochemical
Protocol: as §2, §3

H. pylori urease (HPU) [6] = target: T2, H. pylori urease (HPU); experiment: Urease inhibition test (Berthelot, ammonia at 595 nm); format: biochemical
Protocol: (§4) The standard strain H. pylori strains (ATCC 43504) were cultured on Mueller‐Hinton agar supplemented with 5% sheep blood. Bacterial cultures were maintained for 72 h at 37°C in a microaerophilic environment (5% O2, 10% CO2, 85% N2). For urease extraction, bacterial cells were harvested by centrifugation (5000×g, 10 min, 4°C) and subsequently washed three times with phosphate‐buffered saline (pH 7.4). Following turbidity adjustment using McFarland standards, H. pylori urease was prepared via a method established by Matsubara et al. ([2003]).
Urease activity was measured using spectrophotometry. The reaction was initiated by blending a particular amount of enzyme‐containing solution and 150 mM urea in 20 mM HEPES buffer (pH 7.5) at 37°C. Following 20 min, the Berthelot reagent was applied, and the quantity of ammonia produced by the urease‐urea reaction was detected at 595 nm (Wu et al. [2013]). The control group represented the activity of the uninhibited enzyme, which is 100% active. […]
Then 150 mM urea was added, and the reaction was carried out in the dark for 20 min. Afterward, the Berthelot reagent was added, and the quantity of ammonia produced by the urease‐urea reaction was detected at 595 nm. The residual enzyme activity (RA%) was calculated using the formula: RA% = activity with inhibitor/activity without inhibitor × 100%. […]

[7] = test system: Helicobacter pylori strains (ATCC 43504, HP1869, HP1870); experiment: Minimal inhibitory concentration assay (agar dilution); format: cell-based; conditions: ATCC43504, 120 h, pH 7.2, 5 days
Protocol: as §4
After solidification and overnight storage at 4°C to confirm sterility, plates showing no contamination were inoculated with 100 μL of H. pylori suspension (adjusted to McFarland 1.0 standard) and incubated microaerophilically (85% N2, 10% CO2, 5% O2) at 37°C for 5 days.

JBU = conditions: cited from earlier work
HPU = conditions: ref Xiao et al. [2007]; cited from earlier work
[8] = PIC-inactivated urease after adding 1.25 mM GSH
[9] = co-incubation with 1.5 mM PIC for 20 min
[10] = Lineweaver-Burk plot, progress curves
[11] = 20 min preincubation at 37°C, 150 mM urea, pH 7.5, read-out: IC50

T2 sequence (P69996 whole entry): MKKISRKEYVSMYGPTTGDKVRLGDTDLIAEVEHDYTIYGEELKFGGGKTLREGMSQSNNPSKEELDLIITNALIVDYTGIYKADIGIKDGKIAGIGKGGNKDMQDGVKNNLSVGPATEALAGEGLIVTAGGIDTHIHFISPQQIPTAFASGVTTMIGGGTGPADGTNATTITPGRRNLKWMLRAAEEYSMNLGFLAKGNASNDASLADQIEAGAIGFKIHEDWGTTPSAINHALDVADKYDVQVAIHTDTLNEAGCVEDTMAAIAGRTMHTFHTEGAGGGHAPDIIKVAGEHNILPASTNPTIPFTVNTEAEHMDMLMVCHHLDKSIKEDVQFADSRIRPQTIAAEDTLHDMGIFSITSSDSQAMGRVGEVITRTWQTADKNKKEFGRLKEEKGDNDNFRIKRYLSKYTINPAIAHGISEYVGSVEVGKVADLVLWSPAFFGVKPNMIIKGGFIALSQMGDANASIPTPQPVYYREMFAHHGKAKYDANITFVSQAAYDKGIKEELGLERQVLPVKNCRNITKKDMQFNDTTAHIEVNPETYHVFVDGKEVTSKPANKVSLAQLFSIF
T2 sequence (P14916 whole entry, further chain): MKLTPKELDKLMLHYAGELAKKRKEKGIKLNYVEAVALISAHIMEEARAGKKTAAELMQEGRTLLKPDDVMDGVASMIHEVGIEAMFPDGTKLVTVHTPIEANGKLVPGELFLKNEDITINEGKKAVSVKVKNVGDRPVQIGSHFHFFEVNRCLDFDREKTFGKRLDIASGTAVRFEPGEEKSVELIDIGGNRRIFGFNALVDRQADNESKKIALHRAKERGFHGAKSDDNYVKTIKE
T1 sequence (P07374 whole entry, looked up): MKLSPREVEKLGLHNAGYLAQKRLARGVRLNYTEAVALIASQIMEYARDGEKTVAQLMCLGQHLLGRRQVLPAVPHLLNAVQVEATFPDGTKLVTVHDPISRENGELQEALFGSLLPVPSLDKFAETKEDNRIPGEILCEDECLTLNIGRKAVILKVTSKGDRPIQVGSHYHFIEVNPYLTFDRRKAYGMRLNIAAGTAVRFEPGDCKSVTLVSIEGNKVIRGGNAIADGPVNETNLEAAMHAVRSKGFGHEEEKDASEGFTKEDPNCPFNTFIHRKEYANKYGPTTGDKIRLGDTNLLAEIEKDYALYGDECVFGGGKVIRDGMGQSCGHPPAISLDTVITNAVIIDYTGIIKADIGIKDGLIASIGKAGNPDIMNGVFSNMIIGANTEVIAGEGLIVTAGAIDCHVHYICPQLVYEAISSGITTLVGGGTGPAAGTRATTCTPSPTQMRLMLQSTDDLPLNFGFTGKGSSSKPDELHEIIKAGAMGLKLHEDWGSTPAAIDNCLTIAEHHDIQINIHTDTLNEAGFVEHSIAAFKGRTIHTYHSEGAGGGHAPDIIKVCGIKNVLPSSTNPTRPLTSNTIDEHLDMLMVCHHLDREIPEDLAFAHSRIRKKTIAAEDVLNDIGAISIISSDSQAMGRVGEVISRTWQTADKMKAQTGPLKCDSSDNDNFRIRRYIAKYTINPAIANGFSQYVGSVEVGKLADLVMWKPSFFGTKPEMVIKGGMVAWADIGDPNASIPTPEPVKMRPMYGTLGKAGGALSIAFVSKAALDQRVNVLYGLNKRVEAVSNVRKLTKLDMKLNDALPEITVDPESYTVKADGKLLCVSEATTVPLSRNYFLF

Question: For `Oc1cc(O)cc(/C=C/c2ccc(O)c(O)c2)c1` [PIC, Piceatannol], which reversibility of inactivation (jack bean urease (JBU) [1]; GSH reactivation) is on record?
Answer: reversible

Question: What about the “urease activity restored, of the initial activity” value (jack bean urease (JBU) [1]; [8]) of the same molecule?
Answer: about 60%

Question: And the initial activity lost (jack bean urease (JBU) [1]; [9])?
Answer: approximately 80%

Question: And the reversibility of inactivation (H. pylori urease (HPU) [2]; GSH reactivation)?
Answer: reversible

Question: And the “urease activity restored, of the initial activity” value (H. pylori urease (HPU) [2]; [8])?
Answer: about 60%

Question: And the initial activity lost (H. pylori urease (HPU) [2]; [9])?
Answer: approximately 80%

Question: What about the IC50 (jack bean urease (JBU) [3]) of the same molecule?
Answer: 470 ± 10 µM

Question: And the Ki (jack bean urease (JBU) [4])?
Answer: 340 ± 50 µM

Question: And the inhibition type (jack bean urease (JBU) [4]; [10])?
Answer: slow‐binding, non‐competitive inhibitor; also recorded: non‐competitive type; also recorded: slow‐binding inhibition

Question: And the Ki (H. pylori urease (HPU) [5])?
Answer: 630 ± 20 µM

Question: And the inhibition type (H. pylori urease (HPU) [5]; [10])?
Answer: slow‐binding, mixed inhibitor; also recorded: mixed‐type inhibitor; also recorded: slow‐binding inhibition

Question: What about the “inhibitory constant Kis” value (H. pylori urease (HPU) [5]; secondary replot of Lineweaver-Burk intercepts) of the same molecule?
Answer: 0.94 ± 0.01 mM

Question: What about the IC50 (H. pylori urease (HPU) [6]) of the same molecule?
Answer: 670 ± 20 µM

Question: And the MIC ([7]; pH 7.2, clinical strain HP1869, Mueller-Hinton agar)?
Answer: 100 µg/mL (≈ 409 µM)

Question: What about the MIC ([7]; pH 7.2, clinical strain HP1870, Mueller-Hinton agar) of the same molecule?
Answer: 100 µg/mL (≈ 409 µM)

Question: What about the MIC ([7]; pH 7.2, strain ATCC 43504 (standard strain), Mueller-Hinton agar) of the same molecule?
Answer: 150 µg/mL (≈ 614 µM)

Question: With `O=C(O)[C@H]1O[C@@H](Oc2cc3oc(-c4ccccc4)cc(=O)c3c(O)c2O)[C@H](O)[C@@H](O)[C@@H]1O` [Baicalin] as the molecule, how does the IC50 (JBU; ref Tan et al. [2013], Yu et al. [2015]) read?
Answer: 2740 ± 510 µM

Question: With `O=c1c(-c2ccc(O)cc2)coc2c(O)c(O)ccc12` [7,8,4′‐trihydroxyisoflavone] as the molecule, how does the IC50 (HPU) read?
Answer: 140 µM

Question: For `O=C(O)[C@H]1O[C@@H](Oc2cc3oc(-c4ccc(O)cc4)cc(=O)c3c(O)c2O)[C@H](O)[C@@H](O)[C@@H]1O` [scutellarin], which IC50 (JBU; ref Wu et al. [2013]) is on record?
Answer: 1350 ± 150 µM

Question: What does the source list for `CC(=O)NO` [AHA, Acetohydroxamic acid, reference compound]?
Answer: IC50 (jack bean urease (JBU) [3]; [11]): 20 µM; IC50 (H. pylori urease (HPU) [6]; [11]): 80 µM

Source: article PMC12417329 (Food Science & Nutrition, 2025)
